This note sets out measurements from ChEMBL document CHEMBL4138157, “Synthesis, antibacterial properties and 2D-QSAR studies of quinolone-triazole conjugates” (2018).

Values after ≈ are worked out from the molar mass of the structure shown.

One assay relates to Escherichia coli. Briefly: Antibacterial activity against Escherichia coli ATCC 25922 after 18 hrs by agar dilution method. It is filed as functional. The settings on record: ATCC 25922, 18 h.
For the next assay, the system named is Streptococcus pyogenes. Description: Antibacterial activity against Streptococcus pyogenes ATCC 19615 after 18 hrs by agar dilution method. The settings on record: ATCC 19615, 18 h. Format: functional.
The next assay relates to Pseudomonas aeruginosa. Briefly: Antibacterial activity against Pseudomonas aeruginosa ATCC 27853 after 18 hrs by agar dilution method. Format: functional. The settings on record: ATCC 27853, 18 h. In general terms: In agar dilution, organisms are placed on agar that contains the substance at set levels.
For a further assay, the system named is Salmonella typhi. Briefly: Antibacterial activity against Salmonella typhi ATCC 19430 after 18 hrs by agar dilution method. It is filed as functional, Salmonella enterica subsp. enterica serovar Typhi. To be noted: Salmonella enterica, ATCC 19430, 18 h.

On to `C#CCN1CCN(c2ncc3c(=O)c(C(=O)O)cn(CC)c3n2)CC1`, for which the MIC was 750 µM (≈ 256 µg/mL) in the assay on Escherichia coli, 750 µM (≈ 256 µg/mL) with Streptococcus pyogenes, greater than 3000 µM against Pseudomonas aeruginosa and greater than 3000 µM against Salmonella typhi.

Take `O=C(O)c1cn(C2CC2)c2cc(N3CCN(Cc4cn([C@@H](Cc5ccccc5)C(=O)O)nn4)CC3)c(F)cc2c1=O`: the MIC in the assay with Streptococcus pyogenes, with Pseudomonas aeruginosa and in the assay with Salmonella typhi was 2230 µM (≈ 1250 µg/mL) throughout.

Take `O=C(O)c1cn(C2CC2)c2cc(N3CCN(Cc4cn(-c5ccccc5)nn4)CC3)c(F)cc2c1=O`: the MIC against Escherichia coli is 0.2 µM (≈ 0.0977 µg/mL); in the assay with Streptococcus pyogenes, 16.4 µM (≈ 8.01 µg/mL); in the assay with Pseudomonas aeruginosa, greater than 2100 µM; against Salmonella typhi, 0.2 µM (≈ 0.0977 µg/mL).

With `CCn1cc(C(=O)O)c(=O)c2cc(F)c(N3CCN(Cc4cn([C@@H](CC(C)C)C(=O)O)nn4)CC3)cc21`, the values for the MIC with Streptococcus pyogenes, against Pseudomonas aeruginosa and in the assay on Salmonella typhi were 1210 µM (≈ 625 µg/mL), 1210 µM (≈ 625 µg/mL) and 2430 µM (≈ 1250 µg/mL), respectively.

With `CCn1cc(C(=O)O)c(=O)c2cc(F)c(N3CCN(Cc4cn(-c5ccc([N+](=O)[O-])cc5)nn4)CC3)cc21`, the minimal inhibitory concentration (MIC) is 0.2 µM (≈ 0.104 µg/mL) in the assay with Escherichia coli, 15.3 µM (≈ 7.98 µg/mL) with Streptococcus pyogenes, greater than 1960 µM in the assay with Pseudomonas aeruginosa and 0.2 µM (≈ 0.104 µg/mL) against Salmonella typhi.

Regarding `CCn1cc(C(=O)O)c(=O)c2cc(F)c(N3CCN(Cc4cn(CC(=O)N[C@@H](Cc5ccccc5)C(=O)O)nn4)CC3)cc21`, the MIC in the assay on Streptococcus pyogenes came out at 1030 µM (≈ 625 µg/mL); in the assay with Pseudomonas aeruginosa, 2060 µM (≈ 1250 µg/mL); with Salmonella typhi, 2060 µM (≈ 1250 µg/mL).

Take `C#CCN1CCN(c2cc3c(cc2F)c(=O)c(C(=O)O)cn3CC)CC1`: the MIC in the assay with Escherichia coli is greater than 2870 µM; with Streptococcus pyogenes it was 1430 µM (≈ 512 µg/mL); with Pseudomonas aeruginosa it was greater than 2870 µM; against Salmonella typhi, 1430 µM (≈ 512 µg/mL).

`CCn1cc(C(=O)O)c(=O)c2cnc(N3CCN(Cc4cn([C@@H](C)C(=O)O)nn4)CC3)nc21`: the MIC in the assay on Streptococcus pyogenes was found to be 1370 µM (≈ 625 µg/mL); in the assay on Pseudomonas aeruginosa, 1370 µM (≈ 625 µg/mL); with Salmonella typhi, 2740 µM (≈ 1250 µg/mL).

On to `CC(C)[C@@H](C(=O)O)n1cc(CN2CCN(c3cc4c(cc3F)c(=O)c(C(=O)O)cn4C3CC3)CC2)nn1`, for which the MIC with Streptococcus pyogenes, in the assay with Pseudomonas aeruginosa and in the assay with Salmonella typhi was 2440 µM (≈ 1250 µg/mL) throughout.

For `CCn1cc(C(=O)O)c(=O)c2cc(F)c(N3CCN(Cc4cn([C@H](C(=O)O)C(C)C)nn4)CC3)cc21`, the MIC against Streptococcus pyogenes turned out to be 1250 µM (≈ 625 µg/mL); against Pseudomonas aeruginosa, 2500 µM (≈ 1250 µg/mL); with Salmonella typhi it was 2500 µM (≈ 1250 µg/mL).

In the case of `CC(C)C[C@@H](C(=O)O)n1cc(CN2CCN(c3cc4c(cc3F)c(=O)c(C(=O)O)cn4C3CC3)CC2)nn1`, the MIC with Streptococcus pyogenes, in the assay with Pseudomonas aeruginosa and in the assay on Salmonella typhi was 2370 µM (≈ 1250 µg/mL) each time.

In the case of `CCn1cc(C(=O)O)c(=O)c2cnc(N3CCN(Cc4cn(-c5ccc([N+](=O)[O-])cc5)nn4)CC3)nc21`, the MIC in the assay with Escherichia coli was 0.2 µM (≈ 0.101 µg/mL); in the assay with Streptococcus pyogenes, 127 µM (≈ 64 µg/mL); in the assay on Pseudomonas aeruginosa, 1010 µM (≈ 512 µg/mL); in the assay with Salmonella typhi, 0.2 µM (≈ 0.101 µg/mL).

Regarding `CCn1cc(C(=O)O)c(=O)c2cnc(N3CCN(Cc4cn(CC(=O)N[C@@H](Cc5ccccc5)C(=O)O)nn4)CC3)nc21`, the MIC in the assay with Streptococcus pyogenes was found to be 2120 µM (≈ 1250 µg/mL); in the assay on Pseudomonas aeruginosa, 2120 µM (≈ 1250 µg/mL); in the assay on Salmonella typhi, 212 µM (≈ 125 µg/mL).

As for `CCn1cc(C(=O)O)c(=O)c2cc(F)c(N3CCN(Cc4cn(-c5ccc(C)cc5)nn4)CC3)cc21`, the MIC is 0.2 µM (≈ 0.0981 µg/mL) against Escherichia coli, 2 µM (≈ 0.981 µg/mL) against Streptococcus pyogenes, greater than 2090 µM in the assay on Pseudomonas aeruginosa and 32.6 µM (≈ 16 µg/mL) against Salmonella typhi.

Regarding `CCn1cc(C(=O)O)c(=O)c2cnc(N3CCN(Cc4cn(-c5ccccc5)nn4)CC3)nc21`, the MIC amounted to 0.3 µM (≈ 0.138 µg/mL) against Escherichia coli, 556 µM (≈ 256 µg/mL) in the assay with Streptococcus pyogenes, 1110 µM (≈ 512 µg/mL) with Pseudomonas aeruginosa and 0.3 µM (≈ 0.138 µg/mL) in the assay on Salmonella typhi.

Consider `O=C(Cn1cc(CN2CCN(c3cc4c(cc3F)c(=O)c(C(=O)O)cn4C3CC3)CC2)nn1)N[C@@H](Cc1ccccc1)C(=O)O`, for which the MIC against Streptococcus pyogenes, with Pseudomonas aeruginosa and against Salmonella typhi was 2020 µM (≈ 1250 µg/mL) throughout.

Consider `C[C@@H](C(=O)O)n1cc(CN2CCN(c3cc4c(cc3F)c(=O)c(C(=O)O)cn4C3CC3)CC2)nn1`, for which the MIC in the assay with Streptococcus pyogenes, in the assay with Pseudomonas aeruginosa and with Salmonella typhi was 2580 µM (≈ 1250 µg/mL) in each case.

With `C#CCN1CCN(c2cc3c(cc2F)c(=O)c(C(=O)O)cn3C2CC2)CC1`, the MIC with Escherichia coli was greater than 2770 µM; in the assay with Streptococcus pyogenes, greater than 2770 µM; in the assay on Pseudomonas aeruginosa it was greater than 2770 µM; against Salmonella typhi, 1390 µM (≈ 512 µg/mL).

Consider `O=C(O)c1cn(C2CC2)c2cc(N3CCNCC3)c(F)cc2c1=O` [CIPROFLOXACIN], for which the MIC stood at 3770 µM (≈ 1250 µg/mL) in the assay with Streptococcus pyogenes, 14.5 µM (≈ 4.8 µg/mL) with Pseudomonas aeruginosa and 7.2 µM (≈ 2.39 µg/mL) against Salmonella typhi.

`CCn1cc(C(=O)O)c(=O)c2cc(F)c(N3CCNCC3)cc21` [NORFLOXACIN]: the MIC in the assay on Streptococcus pyogenes was 1960 µM (≈ 625 µg/mL); against Pseudomonas aeruginosa, 15 µM (≈ 4.79 µg/mL); in the assay with Salmonella typhi, 7.5 µM (≈ 2.4 µg/mL).

In the case of `CCn1cc(C(=O)O)c(=O)c2cnc(N3CCNCC3)nc21` [PIPEMIDIC ACID], the values for the MIC against Streptococcus pyogenes, in the assay with Pseudomonas aeruginosa and against Salmonella typhi were 2060 µM (≈ 625 µg/mL), 64.3 µM (≈ 19.5 µg/mL) and 7.9 µM (≈ 2.4 µg/mL), respectively.

In general, MIC refers to the smallest concentration in the dilution series that meets the test's criterion for growth inhibition. A high value points to weaker potency.
